Experiments:
Assay in all cases: Fractional growth, 72 h seliciclib
Type in all cases: cell-based, human
PA-TU-8988S = PA-TU-8988S (Pancreas), 15 μM seliciclib
Source text: (§1) A total of 270 human cancer cell lines from diverse cancer histopathologic types were investigated.

NCI-H1734 = NCI-H1734 (Lung: NSCLC), 15 μM seliciclib
Source text: as §1

HMVII = HMVII (Skin), 15 μM seliciclib
Source text: as §1

SNU-449 = SNU-449 (Liver), 15 μM seliciclib
Source text: as §1

Hs 633T = Hs 633T (Miscellaneous), 15 μM seliciclib
Source text: as §1

PA-TU-8902 = PA-TU-8902 (Pancreas), 15 μM seliciclib
Source text: as §1

HSC-4 = HSC-4 (Head & Neck), 15 μM seliciclib
Source text: as §1

KYSE-450 = KYSE-450 (Esophagus), 15 μM seliciclib
Source text: as §1

HMCB = HMCB (Skin), 15 μM seliciclib
Source text: as §1

GP5d = GP5d (Intestine), 15 μM seliciclib
Source text: as §1

SCCH-196 = SCCH-196 (Miscellaneous), 15 μM seliciclib
Source text: as §1

VMRC-RCZ = VMRC-RCZ (Kidney), 15 μM seliciclib
Source text: as §1

PC-9 = PC-9 (Lung: NSCLC), 15 μM seliciclib
Source text: as §1

Saos-2 = Saos-2 (Bone), 15 μM seliciclib
Source text: as §1

H2373 = H2373 (Lung), 15 μM seliciclib
Source text: as §1

SNU-398 = SNU-398 (Liver), 15 μM seliciclib
Source text: as §1

NCI-H1792 = NCI-H1792 (Lung: NSCLC), 15 μM seliciclib
Source text: as §1

EN = EN (Uterus), 15 μM seliciclib
Source text: as §1

NCI-H727 = NCI-H727 (Lung), 15 μM seliciclib
Source text: as §1

OVCAR-5 = OVCAR-5 (Ovary), 15 μM seliciclib
Source text: as §1

MFM-223 = MFM-223 (Breast), 15 μM seliciclib
Source text: as §1

639-V = 639-V (Bladder), 15 μM seliciclib
Source text: as §1

PANC-1 = PANC-1 (Pancreas), 15 μM seliciclib
Source text: as §1

SK-N-MC = SK-N-MC (Brain), 15 μM seliciclib
Source text: as §1

HGC-27 = HGC-27 (Stomach), 15 μM seliciclib
Source text: as §1

SK-N-AS = SK-N-AS (Brain), 15 μM seliciclib
Source text: as §1

OVCAR-8 = OVCAR-8 (Ovary), 15 μM seliciclib
Source text: as §1

TYK-nu = TYK-nu (Ovary), 15 μM seliciclib
Source text: as §1

SW 1116 = SW 1116 (Intestine), 15 μM seliciclib
Source text: as §1

SAS = SAS (Head & Neck), 15 μM seliciclib
Source text: as §1

SW 1573 = SW 1573 (Lung: NSCLC), 15 μM seliciclib
Source text: as §1

HeLa = HeLa (Cervix), 15 μM seliciclib
Source text: as §1

8505C = 8505C (Thyroid), 15 μM seliciclib
Source text: as §1

NCI-H647 = NCI-H647 (Lung: NSCLC), 15 μM seliciclib
Source text: as §1

ABC-1 = ABC-1 (Lung: NSCLC), 15 μM seliciclib
Source text: as §1

H2722 = H2722 (Lung), 15 μM seliciclib
Source text: as §1

LU99A = LU99A (Lung: NSCLC), 15 μM seliciclib
Source text: as §1

Compound: CC[C@H](CO)Nc1nc(NCc2ccccc2)c2ncn(C(C)C)c2n1 [seliciclib, roscovitine]
- Fractional Growth (PA-TU-8988S): 0.5791
- Fractional Growth (NCI-H1734): 0.2849
- Fractional Growth (HMVII): 0.4646
- Fractional Growth (SNU-449): 0.6309
- Fractional Growth (Hs 633T): 0.41
- Fractional Growth (PA-TU-8902): 0.5577
- Fractional Growth (HSC-4): 0.3894
- Fractional Growth (KYSE-450): 0.4067
- Fractional Growth (HMCB): 0.161
- Fractional Growth (GP5d): 0.7382
- Fractional Growth (SCCH-196): 0.6177
- Fractional Growth (VMRC-RCZ): 0.5994
- Fractional Growth (PC-9): 0.7822
- Fractional Growth (Saos-2): 0.5733
- Fractional Growth (H2373): 0.6168
- Fractional Growth (SNU-398): 0.0473
- Fractional Growth (NCI-H1792): 0.4649
- Fractional Growth (EN): 0.1503
- Fractional Growth (NCI-H727): 0.5866
- Fractional Growth (OVCAR-5): 0.4053
- Fractional Growth (MFM-223): 0.5683
- Fractional Growth (639-V): 0.4196
- Fractional Growth (PANC-1): 0.5761
- Fractional Growth (SK-N-MC): 0.283
- Fractional Growth (HGC-27): 0.2806
- Fractional Growth (SK-N-AS): 0.7261
- Fractional Growth (OVCAR-8): 0.5886
- Fractional Growth (TYK-nu): 0.3005
- Fractional Growth (SW 1116): 0.7592
- Fractional Growth (SAS): 0.3207
- Fractional Growth (SW 1573): 0.6076
- Fractional Growth (HeLa): 0.9192
- Fractional Growth (8505C): 0.4214
- Fractional Growth (NCI-H647): 0.4521
- Fractional Growth (ABC-1): 0.6543
- Fractional Growth (H2722): 0.8974
- Fractional Growth (LU99A): 0.0948
